Source: paper PMC9146423, “Discovery of Nitro-azolo[1,5-a]pyrimidines with Anti-Inflammatory and Protective Activity against LPS-Induced Acute Lung Injury” (Pharmaceuticals, 2022)

What was measured:
C57BL/6J mice = experiment: LPS-induced acute lung injury in mice; format: in vivo, mouse
Description: The randomization of C57bl/6j mice into experimental and control groups was based on body weight and behavioral activity assessed in an open field test 24 h before the start of the experiment. The next day, mice were treated with vehicle or test compounds 1 h before intratracheal instillation of LPS solution in sterile saline.
The randomization of C57BL/6J mice was performed by body weight and motor activity in an open field test. Dexamethasone (5 mg/kg) and 9g (30 mg/kg) were administered intraperitoneally in 10 mL/kg sterile saline. The control animals received an equal volume of the vehicle. After 1 h, the mice were anesthetized with isoflurane inhalation until their breathing rate was decreased. The mice were suspended by the front incisors on an inclined surgical table, the tongue was pulled out with narrow curved tweezers, and 1 mg/mL of E. coli O127:B8 LPS (Sigma-Aldrich, St. Louis, MO, USA) in 1 mL/kg sterile saline was injected into the back of the oropharynx. Intact control animals received an equal volume of sterile saline similarly.
The animals were placed in the center of a round open field with an arena of 44 cm diameter and 32 cm wall height under 300 lux lighting. During 5 min of observation, horizontal motor activity, vertical motor activity, time spent in the central part, the number of exits to the central part, and exploratory activity parameters were recorded. Body temperature was determined rectally.
The mice were anesthetized with 500 mg/kg chloral hydrate (Sigma-Aldrich, St. Louis, MO, USA) intraperitoneally 24 h after LPS administration. Blood was taken by intracardiac puncture in test tubes with heparin. The blood samples were centrifuged at 1000 g and 4 °C for 15 min on a 2–16PK centrifuge (Sigma, Germany), and plasma was separated and stored at −80 °C until the assay. Thoracotomy was performed, the ligature was applied to the left bronchus and the trachea was cannulated with a 20 G needle. The right lung was washed twice with 0.7 mL of warm sterile saline. After combining aliquots, the bronchoalveolar lavage (BAL) was centrifuged at 800 g and 4 °C for 10 min. The supernatant was separated and stored at −80 °C until the assay. The residual cell pellet was resuspended in 50 μL of PBS for further study. The left lung was washed in saline and placed in 10% buffered formalin for morphological evaluation.
The total number of leukocytes in heparinized blood was determined after staining with methylene blue in Goryaev’s counting chamber at ×100 magnification. Smears of blood and BAL cell pellets were air-dried, fixed according to May–Grunwald for 3 min, and stained according to Romanowsky–Giemsa. After 30 min, the slides were washed, air-dried, and examined with immersion objective (×1000 total magnification). On each slide, a total of at least 100 cells were calculated.
The concentration of total protein in BAL supernatants was determined spectrophotometrically with the pyrogallol red method, and the protein in the blood plasma was determined with the biuret method using commercial kits (Vital, Saint Petersburg, Russia) and bovine serum albumin as the standard. The lung permeability index was calculated as the protein concentration in the BAL to plasma ratio.
Morphological markers of inflammation in lung tissue were assessed in a semi-quantitative way on paraffin sections stained with hematoxylin and eosin. The sections were examined under a light microscope (Zeiss, Germany) by a double-blind method. The score of inflammation was determined as follows: 0—the presence of single inflammatory cells; 1—weak inflammation, inflammatory cells infiltrate no more than 10% of the lung tissue, including interalveolar cell partitions; 2—moderate inflammation, inflammatory cells infiltrate no more than 50% of the structures of the lung, but the interstitial tissue is identified; 3—severe inflammation, inflammatory cells densely infiltrate more than 50% of the lung tissue and airways.

[1] = system: LPS-stimulated peritoneal macrophages of C57bl/6j mice; experiment: Cell viability of LPS-stimulated macrophages, MTT test; format: cell-based; conditions: male, C57bl/6j, mouse, 24 h, 100 μM
Description: (§1) Peritoneal macrophages (PM) were isolated from the peritoneal exudate of 30 male C57bl/6j mice. To accumulate PM, 1 mL of 3% peptone solution was injected intraperitoneally. After 3 days, the mice were euthanized by cervical dislocation. Cells of peritoneal exudate were obtained by aseptic washing of the abdominal cavity with 5 mL of sterile Hanks’s solution (+4–6 °C) without calcium and magnesium ions. The total number and viability of cells were assessed in a Goryaev counting chamber (Russia) with a 0.4% trypan blue staining (Sigma-Aldrich, St. Louis, MO, USA). The cell concentration was adjusted to 1.0 × 10^6 cells/mL in DMEM (Gibco) supplemented with 2 mM L-glutamine (Gibco, Waltham, MA, USA), 10% heat-inactivated fetal bovine serum (BioClot, Bavaria, Germany), 100 U/mL penicillin, and […] streptomycin (Gibco) and plated 200 μL/well in 96-well transparent plates (SPL Life Sciences Co., Ltd., Pocheon-si, Korea). After 2 h at 37 °C in a humidified atmosphere with 5% CO2, the wells were washed to remove non-adherent cells. After 24 h of incubation, 20 μL of the supernatants were substituted with 20 μL of solutions of test compounds, followed by E. coli O127:B8 LPS (100 ng/mL final concentration) after 30 min. The experiments were run in 3 independent replicates.
(§2) The activity of lactate dehydrogenase (LDH) in a cell culture medium served as a marker of membrane permeability and cell death. Aliquotes of supernatants were taken after 24 h of inoculation with test compounds, mixed with 250 μL of […] NADH solution in 54 mM phosphate-buffered saline (pH 7.5). Then, 25 μL of a 6.48 mM pyruvate solution was added to the mixture. The optical density was followed at a wavelength of 340 nm for 20 min. The MTT-test was performed 24 h after incubations of cells with tested compounds. Briefly, 20 μL of MTT solution was added to each well, incubated at 37 °C in a humidified atmosphere containing 5% CO2 for 4 h. The culture medium was removed, the cells were lysed, and formazan crystals were dissolved in 150 μL DMSO. The plates were shaken at room temperature for 10 min, and the optical density was measured in a microplate reader Infinite M200 PRO (Tecan, Grödig, Austria) at a wavelength of 565 nm.

[2] = as above; format: cell-based; conditions: male, C57bl/6j, mouse
Description: as §1, §2

[3] = 24 h after LPS, dexamethasone 5 mg/kg, 9g 30 mg/kg i.p.

SMILES: Cc1nc2nnnn2c(NCCc2ccc(O)cc2)c1[N+](=O)[O-] [Compound 9g, N-[2-(4-Hydroxyphenyl)ethyl]-5-methyl-6-nitrotetrazolo-[1,5-a]pyrimidin-7-amine]
- Blood leukocyte subpopulations (C57BL/6J mice; 24 h after LPS): normalized leukocyte subpopulations to the values of intact animals
- CD68+ cells in lung tissue, immunostaining (C57BL/6J mice; 24 h after LPS): decreased the immunoreactivity of the lung tissue
- LPS-induced lung lesions, histologic scoring (hemorrhage and neutrophil infiltration) (C57BL/6J mice; 24 h after LPS, H&E, semi-quantitative): significantly ameliorated
- Blood plasma IL-6 level (C57BL/6J mice; [3]): normalized the blood plasma IL-6 level
- Permeability of pulmonary vessels (lung permeability index) (C57BL/6J mice; [3]): prevent the increase in permeability of pulmonary vessels
- Horizontal motor activity, open field test (C57BL/6J mice; 24 h after LPS, dexamethasone 5 mg/kg, 9g 30 mg/kg i.p. 1 h before LPS): restored motor activity of animals comparably to dexamethasone
- Segmented neutrophils count in BAL (in words) (C57BL/6J mice; 24 h after LPS, monocytes in BAL increased): significantly decreased the segmented neutrophils count
- Spleen mass and lymphocyte content (markers of immunodepression) (C57BL/6J mice; LPS-treated mice, dexamethasone 5 mg/kg, 9g 30 mg/kg i.p.): nonsignificant
- LPS-induced hypothermia (C57BL/6J mice; body temperature determined rectally): attenuated LPS-induced hypothermia
- Segmented neutrophils, share of BAL cells (C57BL/6J mice; bronchoalveolar lavage 24 h after LPS, dexamethasone 5 mg/kg, 9g 30 mg/kg i.p.): 37.6%
- Number of center entries and time in the center, open field test (C57BL/6J mice; dexamethasone 5 mg/kg, 9g 30 mg/kg i.p.): restored the number of center entries and time in the center to intact levels
- Cell Viability vs. LPS Control, MTT Test [1]: 84.65 ± 5.83%
- CC50 at 24 h [2]: > 100 µM
